“And” between values parts separate entries of the source, which are not always exact repeats. Identical values can stand only once.

Data set [1] addresses T1, hCB1 (Homo sapiens, UniProt P21554). The experiment in a line: GloSensor cAMP accumulation assay. The format is cell-based. (In general: Changes in cAMP serve as a functional read-out for many G protein-coupled receptors.)
Description: Briefly, hCB1-expressing cells were transfected with the GloSensor cAMP DNA construct overnight. […] The results were analyzed using GraphPad Prism 9. Each experiment was performed in triplicate and functional IC50 values were determined from the mean of three independent experiments.
In data set [2] the target is T2, CB1R with G protein (Gi1-3, Go) (Homo sapiens, UniProt P21554).
T2 construct: a N-terminal FLAG tag and C-terminal histidine tag was added to human full-length CB1; FLAG (N); histidine tag (C); made in house; host or cells: CB1R: Spodoptera frugiperda Sf9; G proteins: Trichoplusia ni Hi5
Description: GTP turnover assay (GTPase-Glo). As to conditions: replicates, sheet FigS3c. The format is biochemical. On the procedure:
Analysis of GTP turnover was performed by using a modified protocol of the GTPase-Glo^TM assay (Promega) described previously. Ligand-bound (10 μM ligand incubated for one hour at room temperature) or apo CB1R (1 μM) was mixed with G protein (1 μM) in 20 mM HEPES, pH 7.5, 50 mM NaCl, 0.01% L-MNG/0.001% CHS, 100 μM TCEP, 10 μM GDP and 10 μM GTP and incubated at room temperature. GTPase-Glo-reagent was added to the sample after incubation for 60 min (Gi1-3) and 20 min for (Go). Luminescence was measured after the addition of detection reagent and incubation for 10 min at room temperature using a SpectraMax Paradigm plate reader.

In data set [3] the test system is mice. The experiment in a line: Rotarod test. The format is in vivo, mouse.
Data set [4] deals with T1, hCB1. Description: Radioligand competition binding at hCB1. Set-up: host or cells: HEK293SL cells, transient PEI transfection. As to conditions: for radioligand binding, competition curve point (normalized): log[drug]. For orientation: Loss of bound radioactivity is the signal in a displacement assay; it reports binding, not function.
Data set [5] addresses panel of 320 non-olfactory GPCRs (Homo sapiens, UniProt Q9NYM4). The format is cell-based.
Data set [6] addresses panel of 320 non-olfactory GPCRs (Homo sapiens, UniProt Q96RI9). The format is cell-based.
In data set [7] the target is panel of 320 non-olfactory GPCRs (Homo sapiens, UniProt P35368). The format is cell-based.
For data set [8], the target named is panel of 320 non-olfactory GPCRs (Homo sapiens, UniProt P47901). The format is cell-based.
For data set [9], the target named is panel of 320 non-olfactory GPCRs (Homo sapiens, UniProt Q5UAW9). The format is cell-based.
For data set [10], the target named is panel of 320 non-olfactory GPCRs (Homo sapiens, UniProt Q8NDV2). The format is cell-based.
Data set [11] has as its target panel of 320 non-olfactory GPCRs (Homo sapiens, UniProt P50052). The format is cell-based.
For data set [12], the target named is panel of 320 non-olfactory GPCRs (Homo sapiens, UniProt Q96P66). The format is cell-based.
Data set [13] addresses panel of 320 non-olfactory GPCRs (Homo sapiens, UniProt Q6QNK2). The format is cell-based.
Data set [14] addresses panel of 320 non-olfactory GPCRs (Homo sapiens, UniProt P25105). The format is cell-based.
The target of data set [15] is panel of 320 non-olfactory GPCRs (Homo sapiens, UniProt P25106). The format is cell-based.
Data set [16] relates to panel of 320 non-olfactory GPCRs. The format is cell-based, human.
Data set [17] concerns the target panel of 320 non-olfactory GPCRs (Homo sapiens, UniProt Q969N4). The format is cell-based.
Data set [18] concerns the target panel of 320 non-olfactory GPCRs (Homo sapiens, UniProt Q9Y5X5). The format is cell-based.
Data set [19] concerns the target panel of 320 non-olfactory GPCRs (Homo sapiens, UniProt P30556). The format is cell-based.
Data set [20] has as its target panel of 320 non-olfactory GPCRs (Homo sapiens, UniProt P30518). The format is cell-based.
Data set [21] addresses panel of 320 non-olfactory GPCRs (Homo sapiens, UniProt O43193). The format is cell-based.
Data set [22] concerns the target panel of 320 non-olfactory GPCRs (Homo sapiens, UniProt Q99788). The format is cell-based.
Data set [23] deals with panel of 320 non-olfactory GPCRs (Homo sapiens, UniProt P21730). The format is cell-based.
For data set [24], the target named is panel of 320 non-olfactory GPCRs (Homo sapiens, UniProt Q96P67). The format is cell-based.
For data set [25], the target named is panel of 320 non-olfactory GPCRs (Homo sapiens, UniProt P41597). The format is cell-based.
For data set [26], the target named is panel of 320 non-olfactory GPCRs (Homo sapiens, UniProt P30874). The format is cell-based.
Data set [27] deals with mice. The experiment in a line: Hot plate, 52 °C. The format is in vivo, mouse.
The mark [28] stands for this setting: 0.2 mg/kg, individual animals, FigS11b.

panel of 320 non-olfactory GPCRs (Homo sapiens, UniProt O43193), sequence (O43193 whole entry): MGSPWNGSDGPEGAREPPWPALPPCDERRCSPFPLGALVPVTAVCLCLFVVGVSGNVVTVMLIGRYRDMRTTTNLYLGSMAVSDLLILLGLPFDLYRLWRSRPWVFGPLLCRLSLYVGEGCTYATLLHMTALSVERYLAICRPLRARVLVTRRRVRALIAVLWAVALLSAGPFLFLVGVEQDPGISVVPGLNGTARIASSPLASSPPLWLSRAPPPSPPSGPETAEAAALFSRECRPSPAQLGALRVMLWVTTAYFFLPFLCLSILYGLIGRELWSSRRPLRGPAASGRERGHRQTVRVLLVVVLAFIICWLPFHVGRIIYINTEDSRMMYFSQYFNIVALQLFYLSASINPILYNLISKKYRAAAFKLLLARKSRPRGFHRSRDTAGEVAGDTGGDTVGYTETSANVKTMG
panel of 320 non-olfactory GPCRs (Homo sapiens, UniProt P25106), sequence (P25106 whole entry): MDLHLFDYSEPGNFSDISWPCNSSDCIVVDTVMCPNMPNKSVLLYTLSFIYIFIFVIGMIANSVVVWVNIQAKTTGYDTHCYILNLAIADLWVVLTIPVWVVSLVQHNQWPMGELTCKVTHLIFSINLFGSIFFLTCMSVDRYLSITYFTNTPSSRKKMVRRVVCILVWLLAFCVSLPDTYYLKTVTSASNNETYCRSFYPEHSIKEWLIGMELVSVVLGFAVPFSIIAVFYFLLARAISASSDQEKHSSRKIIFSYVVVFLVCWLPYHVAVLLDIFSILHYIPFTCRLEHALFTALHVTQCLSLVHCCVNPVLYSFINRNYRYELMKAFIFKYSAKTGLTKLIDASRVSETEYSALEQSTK
panel of 320 non-olfactory GPCRs (Homo sapiens, UniProt P41597), sequence (P41597 whole entry): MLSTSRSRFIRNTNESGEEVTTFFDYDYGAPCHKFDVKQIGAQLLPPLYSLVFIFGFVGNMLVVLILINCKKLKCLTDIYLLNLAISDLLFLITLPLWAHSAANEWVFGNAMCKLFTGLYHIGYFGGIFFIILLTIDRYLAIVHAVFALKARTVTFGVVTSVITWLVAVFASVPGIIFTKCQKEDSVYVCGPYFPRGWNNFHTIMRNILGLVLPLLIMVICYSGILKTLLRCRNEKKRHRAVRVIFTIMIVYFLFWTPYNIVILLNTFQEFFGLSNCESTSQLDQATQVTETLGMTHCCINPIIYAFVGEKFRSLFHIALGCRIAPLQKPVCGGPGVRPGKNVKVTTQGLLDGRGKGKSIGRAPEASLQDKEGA
panel of 320 non-olfactory GPCRs (Homo sapiens, UniProt Q9NYM4), sequence (Q9NYM4 17-423): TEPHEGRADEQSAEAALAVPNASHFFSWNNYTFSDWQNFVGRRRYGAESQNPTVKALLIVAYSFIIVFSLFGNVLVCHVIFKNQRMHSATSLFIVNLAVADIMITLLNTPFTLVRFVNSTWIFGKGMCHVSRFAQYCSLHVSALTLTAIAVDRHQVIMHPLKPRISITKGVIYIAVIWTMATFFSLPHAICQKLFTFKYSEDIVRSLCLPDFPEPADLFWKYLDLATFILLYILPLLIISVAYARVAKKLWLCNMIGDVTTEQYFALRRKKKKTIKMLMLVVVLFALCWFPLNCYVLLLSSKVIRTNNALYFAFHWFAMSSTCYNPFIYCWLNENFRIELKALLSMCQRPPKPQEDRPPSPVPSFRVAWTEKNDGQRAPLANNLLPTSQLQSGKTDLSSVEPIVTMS
panel of 320 non-olfactory GPCRs (Homo sapiens, UniProt Q8NDV2), sequence (Q8NDV2 whole entry): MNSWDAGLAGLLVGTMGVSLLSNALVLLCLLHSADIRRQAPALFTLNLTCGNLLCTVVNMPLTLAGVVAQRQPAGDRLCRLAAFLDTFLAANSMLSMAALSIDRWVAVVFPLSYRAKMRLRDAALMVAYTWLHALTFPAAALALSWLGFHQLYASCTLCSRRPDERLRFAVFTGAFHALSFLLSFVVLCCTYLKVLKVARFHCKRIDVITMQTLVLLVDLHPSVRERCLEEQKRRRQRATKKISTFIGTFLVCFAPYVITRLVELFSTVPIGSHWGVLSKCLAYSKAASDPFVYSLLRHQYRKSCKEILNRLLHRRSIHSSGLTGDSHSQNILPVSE
panel of 320 non-olfactory GPCRs (Homo sapiens, UniProt Q969N4), sequence (Q969N4 whole entry): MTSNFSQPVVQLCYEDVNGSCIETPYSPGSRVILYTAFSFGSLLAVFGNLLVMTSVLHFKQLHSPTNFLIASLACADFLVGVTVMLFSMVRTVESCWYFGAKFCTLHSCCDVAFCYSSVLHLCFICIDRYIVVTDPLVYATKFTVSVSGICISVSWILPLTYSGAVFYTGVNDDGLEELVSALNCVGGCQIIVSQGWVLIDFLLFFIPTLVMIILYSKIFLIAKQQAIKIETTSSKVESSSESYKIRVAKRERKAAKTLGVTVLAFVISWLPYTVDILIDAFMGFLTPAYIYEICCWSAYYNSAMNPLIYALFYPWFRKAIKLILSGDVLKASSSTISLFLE
panel of 320 non-olfactory GPCRs (Homo sapiens, UniProt P47901), sequence (P47901 whole entry): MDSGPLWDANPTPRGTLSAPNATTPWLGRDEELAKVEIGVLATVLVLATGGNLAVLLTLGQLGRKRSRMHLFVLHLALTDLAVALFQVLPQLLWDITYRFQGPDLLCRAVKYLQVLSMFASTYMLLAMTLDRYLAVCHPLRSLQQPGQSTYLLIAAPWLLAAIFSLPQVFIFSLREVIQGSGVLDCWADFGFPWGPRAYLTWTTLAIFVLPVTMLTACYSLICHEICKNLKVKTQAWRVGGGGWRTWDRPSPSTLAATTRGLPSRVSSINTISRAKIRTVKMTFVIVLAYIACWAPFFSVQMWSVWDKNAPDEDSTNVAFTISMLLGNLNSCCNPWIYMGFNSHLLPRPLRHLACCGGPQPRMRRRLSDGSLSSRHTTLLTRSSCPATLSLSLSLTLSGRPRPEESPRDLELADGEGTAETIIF
panel of 320 non-olfactory GPCRs (Homo sapiens, UniProt Q5UAW9), sequence (Q5UAW9 whole entry): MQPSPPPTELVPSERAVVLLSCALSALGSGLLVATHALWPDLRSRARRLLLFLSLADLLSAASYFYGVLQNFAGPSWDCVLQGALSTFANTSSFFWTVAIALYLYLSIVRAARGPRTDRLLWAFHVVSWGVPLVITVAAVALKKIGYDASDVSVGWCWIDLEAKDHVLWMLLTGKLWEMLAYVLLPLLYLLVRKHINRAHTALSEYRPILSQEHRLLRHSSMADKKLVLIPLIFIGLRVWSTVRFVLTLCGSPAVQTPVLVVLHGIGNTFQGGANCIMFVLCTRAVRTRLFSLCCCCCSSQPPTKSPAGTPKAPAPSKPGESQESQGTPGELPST
panel of 320 non-olfactory GPCRs (Homo sapiens, UniProt P50052), sequence (P50052 whole entry): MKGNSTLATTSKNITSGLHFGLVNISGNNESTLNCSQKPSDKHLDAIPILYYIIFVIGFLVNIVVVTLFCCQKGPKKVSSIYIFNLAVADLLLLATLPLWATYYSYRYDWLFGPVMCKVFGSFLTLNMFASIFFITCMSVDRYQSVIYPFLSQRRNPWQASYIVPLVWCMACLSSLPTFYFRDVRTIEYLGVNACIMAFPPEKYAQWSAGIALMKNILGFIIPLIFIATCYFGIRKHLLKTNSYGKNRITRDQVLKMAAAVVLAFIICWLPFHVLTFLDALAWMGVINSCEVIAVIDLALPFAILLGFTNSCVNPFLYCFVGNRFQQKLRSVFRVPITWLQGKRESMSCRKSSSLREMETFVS
panel of 320 non-olfactory GPCRs (Homo sapiens, UniProt P25105), sequence (P25105 whole entry): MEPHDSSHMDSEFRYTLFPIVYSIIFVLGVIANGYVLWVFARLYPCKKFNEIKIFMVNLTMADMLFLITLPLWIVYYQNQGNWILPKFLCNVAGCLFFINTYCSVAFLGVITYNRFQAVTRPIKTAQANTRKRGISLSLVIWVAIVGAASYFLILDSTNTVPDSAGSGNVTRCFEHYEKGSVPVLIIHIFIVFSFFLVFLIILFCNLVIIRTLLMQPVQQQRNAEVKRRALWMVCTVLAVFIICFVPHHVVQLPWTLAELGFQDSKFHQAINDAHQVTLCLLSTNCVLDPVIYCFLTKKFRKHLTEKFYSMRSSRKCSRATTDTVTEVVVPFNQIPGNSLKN
T2 sequence (P21554 whole entry): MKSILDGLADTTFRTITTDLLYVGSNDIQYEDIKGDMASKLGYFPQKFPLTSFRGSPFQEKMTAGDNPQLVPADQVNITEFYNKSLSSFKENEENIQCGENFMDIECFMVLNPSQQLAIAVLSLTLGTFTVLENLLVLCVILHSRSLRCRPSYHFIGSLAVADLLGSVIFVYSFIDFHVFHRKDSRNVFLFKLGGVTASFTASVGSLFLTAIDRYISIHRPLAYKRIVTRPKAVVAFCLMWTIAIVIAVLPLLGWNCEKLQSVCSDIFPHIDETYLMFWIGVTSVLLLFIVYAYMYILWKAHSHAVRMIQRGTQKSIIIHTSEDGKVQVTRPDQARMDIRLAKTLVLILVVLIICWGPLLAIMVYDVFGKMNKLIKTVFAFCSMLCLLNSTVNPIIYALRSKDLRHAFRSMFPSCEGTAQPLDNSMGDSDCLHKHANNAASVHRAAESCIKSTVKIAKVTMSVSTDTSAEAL
T1 sequence (P21554 whole entry): as above
panel of 320 non-olfactory GPCRs (Homo sapiens, UniProt Q99788), sequence (Q99788 whole entry): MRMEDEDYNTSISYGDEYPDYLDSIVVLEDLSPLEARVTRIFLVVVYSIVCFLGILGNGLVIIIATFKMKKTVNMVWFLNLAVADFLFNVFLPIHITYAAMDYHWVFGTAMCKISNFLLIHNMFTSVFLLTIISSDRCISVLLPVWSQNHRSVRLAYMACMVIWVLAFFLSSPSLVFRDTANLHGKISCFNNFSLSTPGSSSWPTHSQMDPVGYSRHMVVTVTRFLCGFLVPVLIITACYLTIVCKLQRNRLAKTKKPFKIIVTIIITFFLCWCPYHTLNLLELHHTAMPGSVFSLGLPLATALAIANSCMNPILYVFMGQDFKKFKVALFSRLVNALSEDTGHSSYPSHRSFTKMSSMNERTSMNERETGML

The EC50 is the concentration that produces a half-maximal response. Read a low EC50 as an effect from little substance. As usually defined, the Emax is the size of the effect at its maximum, as opposed to the concentration needed. `COC(=O)C(NC(=O)c1cc(C)n(-c2cccc(C(F)(F)F)c2)n1)c1cccs1` (stereo not shown) [‘60154]: in data set [1], the EC50 amounted to 25.2 nM, the maximum response (Emax) was 82% and the “Glosensor cAMP pEC50” value was 7.6 [7.4 – 7.8].
`COC(=O)[C@](C)(NC(=O)c1cc(C)n(-c2cccc(C(F)(F)F)c2)n1)c1cccs1` [‘8690]: the “GTP turnover, normalised (FUB about 100)” value in [2] (Gi2) was 16.9643 and 39.0749 and 37.2739 and 44.0104 and 47.8141 and 43.1917; in data set [2] (Gi3), 40.931 and 39.8765 and 45.2237 and 46.1547 and 48.6065 and 44.9238; in data set [2] (Goa), 61.5575 and 70.4664 and 69.7244 and 64.4739 and 72.6259 and 67.4132; in data set [2] (first block, G protein not printed (Gi2, Gi3, Goa follow)) it was 38.198 and 43.143 and 41.7234 and 41.9514 and 39.8163 and 42.5776.
In general, Ki refers to the equilibrium dissociation constant of an inhibitor or competing ligand from its target. With `Cc1cc(C(=O)NC(C)(c2ccco2)c2ccco2)nn1-c1cccc(C(F)(F)F)c1` [‘4936], the “rotarod performance (Figure6b), individual animals” value in data set [3] (Dose 0.2 mg/kg) was 300 and 283; in data set [3] (Dose 0.5 mg/kg), 300 and 234 and 278 and 166 and 268 and 275 and 273; in data set [3] (Dose 1.0 mg/kg), 201 and 300 and 258 and 267 and 295 and 215 and 252 and 282 and 235; in [3] (Dose 2.0 mg/kg), 298 and 90 and 300 and 163 and 260. For the same molecule, in data set [3] (i.p.), the “dose showing locomotor deficits or sedation, rotarod” value was found to be 2 mg/kg. The molecule further showed a Ki in [4] of 3.98 nM. Further, the “radioligand binding, competition curve point (normalized)” value in data set [4] (M = -5.643, replicate columns) was -14.5136 and 0.4673; in data set [4] (M = -6.357, replicate columns), -3.19 and 6.075; in [4] (M = -7.07, replicate columns) it was 20.4147 and 9.813; in data set [4] (M = -7.783, replicate columns) it was 36.2041 and 27.8816; in [4] (M = -8.496, replicate columns) it was 40.1914 and 64.2523; in data set [4] (M = -9.21, replicate columns), 71.0526 and 82.243. Besides, the “radioligand binding, competition curve point (normalized)” value is 77.9904 and 73.053 in data set [4] (M = -9.923, replicate columns); 83.8915 and 104.439 in data set [4] (M = -10.636, replicate columns). Moreover, the “Fold of Basal RLU” value in data set [5] is 0.8 fold and 0.9 fold and 0.6 fold; in data set [6] it was 0.8 and 1.3 and 1.4; in [7], 0.9 fold and 0.8 fold; in data set [8], 0.6 and 0.4 and 0.5; in data set [9] it was 1.4 and 1.2 and 0.9 and 0.7; in data set [10] it was 2 fold and 1.4 fold and 2.8 fold and 1.7 fold. The “Fold of Basal RLU” value in data set [11] is 1.1 fold and 1.2 fold and 0.9 fold; in data set [12] it was 1.2 fold and 1.3 fold; in data set [13] it was 0.9 fold; in data set [14], 1.1 fold and 1.5 fold and 1.8 fold; in data set [15] it was 3.3 fold and 2.7 fold and 2.1 fold and 4 fold; in data set [17] it was 1.4 fold and 0.8 fold and 1.2 fold. Further, the “Fold of Basal RLU” value in [18] is 0.4 and 0.6 and 0.5 and 0.3; in [19], 1.7 and 1.2 and 1.4 and 1.8; in data set [20], 0.9 fold and 1.3 fold and 1.6 fold; in data set [21], 2 and 1.6 and 1.3 and 1.1; in data set [22] it was 1.1 and 1 and 0.9; in data set [23], 0.8 fold and 0.7 fold. Also, the “Fold of Basal RLU” value was 1 fold and 0.9 fold in data set [24]; 0.9 and 0.8 and 1 in data set [25]; 0.7 and 1 in data set [26]. For the same molecule, the “agonist activity at GPR55, GPR18, GPR119” value in data set [16] is reported as “no agonist activity”. The off-target functional activity entry in data set [16] is given as “except for ‘4936 against ADORA-1”. The Jump in data set [27] (setting [28]) is 2 (2×) and 4 and 0 (2×). Further, the Paw lick in data set [27] (setting [28]) is 27 and 43 and 44 and 13 and 16. The Paw shake in data set [27] (setting [28]) is 12 (2×) and 25 and 5 and 6. In addition, the Paw withdrawal in data set [27] (setting [28]) is 24 (2×) and 13 and 23 and 8. Further, the “hot plate response normalised to baseline (Figure4b), individual animals” value in data set [27] (Dose 0.05 mg/kg) is 102.582 and 109.155 and 97.1831 and 135.446 and 112.911; in [27] (Dose 0.1 mg/kg), 324.648 and 182.16 and 233.803 and 158.685 and 147.887 and 257.981 and 154.695 and 178.169 and 197.418 and 155.869; in data set [27] (Dose 0.2 mg/kg) it was 174.413 and 176.291 and 188.028 and 167.84 and 94.8357 and 253.991 and 380.986 and 174.648 and 215.493 and 126.291; in [27] (Dose 0.5 mg/kg) it was 308.685 and 139.202 and 403.052 and 315.493 and 134.742 and 404.695 and 140.141 and 141.549 and 236.62 and 416.667. The “lowest dose with significantly increased hot plate latency” value in data set [27] (i.p., 30 min after injection) amounted to 0.5 mg/kg.
Regarding `COC(=O)C(C)(NC(=O)c1cc(C)n(-c2cccc(C(F)(F)F)c2)n1)c1cccs1` (stereo not shown) [‘4042], in data set [1], the Emax came to 91% and the “Glosensor cAMP pEC50” value is 10.4 [10.3 – 10.5].
